This is an account of results in publication PMC4286029 (Inflammation Research, 2014).

One test deals with T1, CDK1/cyclinB (Homo sapiens, UniProt P06493).
T1 construct: purchased Millipore Co. Ltd. (KinaseProfiler service)
Put plainly: KinaseProfiler selectivity: CDK1/cyclinB. It is filed as biochemical. As for the experimental part:
(§1) […]; The selectivity of JTE-052 for other kinases was assessed using KinaseProfiler™ (Millipore Co. Ltd.). […].

In another test the target is T2, cSRC (Homo sapiens, UniProt P12931).
T2 construct: purchased Millipore Co. Ltd. (KinaseProfiler service)
Put plainly: KinaseProfiler selectivity: cSRC. The class given is biochemical. As for the experimental part:
as §1

For another test, the target named is T3, EGFR (Homo sapiens, UniProt P00533).
T3 construct: purchased Millipore Co. Ltd. (KinaseProfiler service)
Put plainly: KinaseProfiler selectivity: EGFR. It is filed as biochemical. Here is the method: as §1

The next test has as its target T4, IKKβ (Homo sapiens, UniProt O14920).
T4 construct: purchased Millipore Co. Ltd. (KinaseProfiler service)
Put plainly: KinaseProfiler selectivity: IKKβ. The class given is biochemical. As for the experimental part:
as §1

The next test deals with T5, Lck (Homo sapiens, UniProt P06239).
T5 construct: purchased Millipore Co. Ltd. (KinaseProfiler service)
Briefly: KinaseProfiler selectivity: Lck. The class given is biochemical. Here is the method:
as §1

Another test addresses T6, Plk1 (Homo sapiens, UniProt P53350).
T6 construct: purchased Millipore Co. Ltd. (KinaseProfiler service)
Briefly: KinaseProfiler selectivity: Plk1. It is filed as biochemical. As for the experimental part: as §1

In another test the target is T7, SAPK2a (Homo sapiens, UniProt Q16539).
T7 construct: purchased Millipore Co. Ltd. (KinaseProfiler service)
Put plainly: KinaseProfiler selectivity: SAPK2a. The class given is biochemical. Here is the method:
as §1

The target in another test is T8, ZAP-70 (Homo sapiens, UniProt P43403).
T8 construct: purchased Millipore Co. Ltd. (KinaseProfiler service)
Put plainly: KinaseProfiler selectivity: ZAP-70. It is filed as biochemical. As for the experimental part:
as §1

In test [1] the test system is GM-CSF signaling (JAK2/JAK2), Stat5 phosphorylation in hPBMCs. Briefly: cells. As to conditions: Homo sapiens, 0.25 h, read-out: IC50, GM-CSF cytokine signaling (JAK2/JAK2). Here is the method: (§2) hPBMCs (3 × 10^6 cells/tube) were incubated with a test compound for 30 min at 37 °C, and then treated with IL-2 (100 ng/mL), IL-6 (100 ng/mL), IL-23 (100 ng/mL), IFN-α (100 ng/mL), or GM-CSF (1 ng/mL) for an additional 15 min. To terminate the stimulation, the cells were fixed with Fixation Buffer (BD Biosciences) for 10 min at 37 °C. The fixed cells were incubated with Perm Buffer II (BD Biosciences) for 30 min on ice and then incubated with fluorochrome-labeled anti-CD3, anti-CD4, or anti-phospho-Stat antibodies for 30 min at room temperature. The cytokine-induced Stat phosphorylation was analyzed and quantified using a Cytomics FC500 (Beckman Coulter Inc., Brea, CA). In the case of IL-23 stimulation, hPBMCs were precultured with 10 μg/mL phytohemagglutinin (PHA)-M (Sigma-Aldrich Co.) for 3 days to enhance their response to IL-23.
(§3) The phosphorylation levels of Stat5 (IL-2 and GM-CSF), Stat3 (IL-6 and IL-23), or Stat1 (IFN-α) in CD3^+CD4^+ cells (IL-2, IL-23, and IFN-α) or CD3^-CD4^+ cells (IL-6 and GM-CSF) were analyzed by flow cytometry. Data are presented as percentages of mean fluorescence intensity relative to vehicle (100 %) and non-stimulated control cells (0 %). Values are mean ± SEM. Three independent experiments were performed

Test [2] concerns IFN-α signaling (JAK1/Tyk2), Stat1 phosphorylation in hPBMCs. Put plainly: cells. As to conditions: Homo sapiens, 0.25 h, read-out: IC50, IFN-α cytokine signaling (JAK1/Tyk2). Here is the method: as §2, §3
In test [3] the test system is IL-2 signaling (JAK1/JAK3), Stat5 phosphorylation in hPBMCs. Put plainly: cells. As to conditions: Homo sapiens, 0.25 h, read-out: IC50, IL-2 cytokine signaling (JAK1/JAK3). Here is the method: as §2, §3
The subject of test [4] is IL-23 signaling (JAK2/Tyk2), Stat3 phosphorylation in hPBMCs. Briefly: cells. As to conditions: Homo sapiens, 0.25 h, read-out: IC50, IL-23 cytokine signaling (JAK2/Tyk2). Here is the method:
as §2, §3

Test [5] relates to IL-6 signaling (JAK1/JAK2), Stat3 phosphorylation in hPBMCs. Briefly: cells. As to conditions: Homo sapiens, 0.25 h, read-out: IC50, IL-6 cytokine signaling (JAK1/JAK2). Here is the method:
as §2, §3

The subject of test [6] is rat collagen-induced arthritis model. Briefly: Collagen-induced arthritis in rats. The class given is in vivo, Lewis rats. As for the experimental part: CIA was induced in rats as previously described with some modifications. Briefly, type II collagen (Collagen Research Center, Saitama, Japan) was dissolved in 0.01 M acetic acid at 2 mg/mL, and the solution was emulsified in an equal volume of Freund’s incomplete adjuvant (Difco Laboratories, Detroit, MI). Lewis rats were immunized with 1 mL of the emulsion (1 mg of type II collagen) via ten intradermal injections on the back under anesthesia. The rats were then challenged with 0.2 mL of the emulsion injected into the base of the tail on day 8 under anesthesia. The test drugs were given orally once daily from day 1 to day 21 (preventive administration) or from day 15 to day 28 (therapeutic administration). After arthritis induction, the hind paw volume was measured by a water displacement method using a plethysmometer (Muromachi Kikai Co. Ltd., Tokyo, Japan). On day 22 or day 29, the rats were euthanized, and their hind paws were excised and X-rayed or processed for histological evaluation. Radiographs of the right hindlimbs were taken using a microfocal cone-beam X-ray CT scanner (MCT-CB100MF; Hitachi Medical Corporation, Tokyo, Japan). The severity of bone destruction was scored on a 3-point scale ranging from 0 to 2 for the following five joints: second metatarsal—second intertarsal joint, third metatarsal—third intertarsal joint, talus—central intertarsal joint, calcaneus—fourth intertarsal joint, and astragalo—tibial joint. For histological analysis, the formalin-fixed left hindlimbs were sectioned and stained with hematoxylin and eosin. The histology of the tarsal joints was evaluated by assessing the following parameters defined in the preliminary examination: inflammatory cell infiltration, synovial cell hyperplasia, cartilage destruction, and bone destruction. The severity of each histological change was scored on a 5-point scale ranging from 0 to 4. (Score 0: normal; Score 1: minimal, solitary (and very small) lesion; Score 2: slight, focal (and small) lesion; Score 3: moderate, scattered lesion; and Score 4: severe, extensive lesion).
. The hind paw volume (a) and body weight (b) were measured periodically. Images of hematoxylin and eosin staining (c) and radiographs of hindlimbs (e) are shown. Histological change (d) and radiographical change (f) were scored. The results are expressed as mean ± SD. ^# p < 0.05, ^## p < 0.01, versus vehicle by the Steel test
. The hind paw volume (a) and body weight (b) were measured periodically. Images of hematoxylin and eosin staining (c) and radiographs of hindlimbs (e) are shown. Histological change (d) and radiographical change (f) were scored. The results are expressed as mean ± SD. *p < 0.05, **p < 0.01, versus vehicle by Dunnett’s test. ^# p < 0.05, ^## p < 0.01, versus vehicle by the Steel test

Another test has as its system human mast cells. As to conditions: Mast cell, read-out: IC50, IL-4 priming of Fcε receptor-dependent TNF-α production in mast cells.

Bounds are passed on as bounds.

T6 sequence (P53350 whole entry, species assumed): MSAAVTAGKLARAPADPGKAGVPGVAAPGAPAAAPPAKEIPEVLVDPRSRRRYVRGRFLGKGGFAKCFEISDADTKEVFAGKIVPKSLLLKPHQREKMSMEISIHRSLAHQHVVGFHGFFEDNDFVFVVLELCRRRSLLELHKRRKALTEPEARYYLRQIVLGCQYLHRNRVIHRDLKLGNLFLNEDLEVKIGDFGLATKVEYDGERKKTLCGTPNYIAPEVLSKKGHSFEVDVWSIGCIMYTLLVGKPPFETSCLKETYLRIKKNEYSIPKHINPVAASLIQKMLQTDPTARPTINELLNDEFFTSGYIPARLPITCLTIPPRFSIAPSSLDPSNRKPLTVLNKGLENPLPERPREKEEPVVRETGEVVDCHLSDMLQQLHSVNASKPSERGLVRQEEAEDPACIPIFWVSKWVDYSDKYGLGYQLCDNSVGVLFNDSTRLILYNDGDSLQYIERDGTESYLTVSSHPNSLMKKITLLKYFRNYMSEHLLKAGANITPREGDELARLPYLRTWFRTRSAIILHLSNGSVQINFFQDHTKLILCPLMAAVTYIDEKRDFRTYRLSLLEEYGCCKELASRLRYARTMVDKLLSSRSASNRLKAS
T2 sequence (P12931 whole entry, species assumed): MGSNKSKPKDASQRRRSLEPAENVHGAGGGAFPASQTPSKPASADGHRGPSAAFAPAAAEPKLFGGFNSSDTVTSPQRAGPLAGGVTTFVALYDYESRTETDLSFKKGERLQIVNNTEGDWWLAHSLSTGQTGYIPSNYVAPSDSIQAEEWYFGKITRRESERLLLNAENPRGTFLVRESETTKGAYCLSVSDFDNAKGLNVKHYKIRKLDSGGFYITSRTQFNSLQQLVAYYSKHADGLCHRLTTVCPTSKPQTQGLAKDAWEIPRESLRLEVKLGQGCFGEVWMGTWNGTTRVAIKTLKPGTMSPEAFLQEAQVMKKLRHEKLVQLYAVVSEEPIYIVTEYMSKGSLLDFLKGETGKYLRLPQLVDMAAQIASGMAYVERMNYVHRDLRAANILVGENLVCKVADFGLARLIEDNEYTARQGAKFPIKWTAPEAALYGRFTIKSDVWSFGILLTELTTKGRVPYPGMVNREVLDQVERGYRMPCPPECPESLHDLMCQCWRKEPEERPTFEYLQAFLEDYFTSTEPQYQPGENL
T4 sequence (O14920 whole entry, species assumed): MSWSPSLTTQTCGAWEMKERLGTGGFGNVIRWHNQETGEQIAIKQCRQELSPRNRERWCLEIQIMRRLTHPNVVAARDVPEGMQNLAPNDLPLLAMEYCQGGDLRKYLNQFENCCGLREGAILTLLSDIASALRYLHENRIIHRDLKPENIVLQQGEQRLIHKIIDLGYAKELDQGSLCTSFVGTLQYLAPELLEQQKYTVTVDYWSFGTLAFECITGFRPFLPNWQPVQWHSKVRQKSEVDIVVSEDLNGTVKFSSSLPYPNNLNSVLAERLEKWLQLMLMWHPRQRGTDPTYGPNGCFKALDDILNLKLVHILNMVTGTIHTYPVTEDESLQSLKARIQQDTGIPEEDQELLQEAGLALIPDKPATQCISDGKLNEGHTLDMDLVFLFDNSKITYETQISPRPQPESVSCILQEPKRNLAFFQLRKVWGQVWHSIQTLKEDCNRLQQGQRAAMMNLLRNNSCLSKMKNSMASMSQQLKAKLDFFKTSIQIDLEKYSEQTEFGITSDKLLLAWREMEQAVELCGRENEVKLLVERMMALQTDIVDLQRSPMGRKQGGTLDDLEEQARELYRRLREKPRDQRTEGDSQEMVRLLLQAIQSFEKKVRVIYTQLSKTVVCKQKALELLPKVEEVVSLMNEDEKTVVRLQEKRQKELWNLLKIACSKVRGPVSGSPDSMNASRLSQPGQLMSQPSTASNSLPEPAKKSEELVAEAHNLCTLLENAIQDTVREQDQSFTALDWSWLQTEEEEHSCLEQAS
T1 sequence (P06493 whole entry, species assumed): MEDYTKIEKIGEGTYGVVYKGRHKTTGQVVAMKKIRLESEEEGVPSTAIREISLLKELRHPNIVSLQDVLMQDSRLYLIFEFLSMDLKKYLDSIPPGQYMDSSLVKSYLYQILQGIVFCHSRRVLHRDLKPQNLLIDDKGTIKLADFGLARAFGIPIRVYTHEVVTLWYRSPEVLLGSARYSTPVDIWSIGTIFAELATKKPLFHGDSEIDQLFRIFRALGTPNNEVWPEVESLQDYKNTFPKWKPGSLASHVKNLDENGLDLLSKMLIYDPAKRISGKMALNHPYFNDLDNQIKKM
T1 sequence (P14635 whole entry partner, species assumed): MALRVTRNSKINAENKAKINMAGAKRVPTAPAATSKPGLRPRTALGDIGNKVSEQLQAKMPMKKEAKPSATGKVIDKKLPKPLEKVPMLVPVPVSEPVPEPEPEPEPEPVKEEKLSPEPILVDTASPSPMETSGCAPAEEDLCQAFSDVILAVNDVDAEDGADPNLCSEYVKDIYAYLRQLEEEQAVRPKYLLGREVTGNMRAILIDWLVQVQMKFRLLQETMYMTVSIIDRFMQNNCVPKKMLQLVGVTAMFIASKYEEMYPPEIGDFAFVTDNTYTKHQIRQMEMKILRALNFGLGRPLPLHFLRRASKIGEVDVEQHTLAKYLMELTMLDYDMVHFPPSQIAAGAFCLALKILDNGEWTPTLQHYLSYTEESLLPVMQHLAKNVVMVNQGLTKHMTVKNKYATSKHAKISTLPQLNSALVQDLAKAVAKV
T5 sequence (P06239 whole entry, species assumed): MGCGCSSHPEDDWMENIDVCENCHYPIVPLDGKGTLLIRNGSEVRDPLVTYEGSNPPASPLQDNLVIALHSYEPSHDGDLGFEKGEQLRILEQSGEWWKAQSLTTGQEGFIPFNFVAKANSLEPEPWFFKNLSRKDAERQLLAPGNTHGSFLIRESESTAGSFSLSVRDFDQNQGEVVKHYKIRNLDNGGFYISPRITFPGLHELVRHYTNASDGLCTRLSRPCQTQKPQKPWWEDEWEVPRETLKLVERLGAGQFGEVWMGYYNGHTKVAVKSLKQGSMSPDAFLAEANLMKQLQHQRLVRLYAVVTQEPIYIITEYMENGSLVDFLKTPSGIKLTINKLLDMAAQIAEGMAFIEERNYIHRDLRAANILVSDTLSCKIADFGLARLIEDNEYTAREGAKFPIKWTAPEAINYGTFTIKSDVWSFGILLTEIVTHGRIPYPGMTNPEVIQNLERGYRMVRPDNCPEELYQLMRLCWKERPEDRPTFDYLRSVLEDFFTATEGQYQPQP
T8 sequence (P43403 whole entry): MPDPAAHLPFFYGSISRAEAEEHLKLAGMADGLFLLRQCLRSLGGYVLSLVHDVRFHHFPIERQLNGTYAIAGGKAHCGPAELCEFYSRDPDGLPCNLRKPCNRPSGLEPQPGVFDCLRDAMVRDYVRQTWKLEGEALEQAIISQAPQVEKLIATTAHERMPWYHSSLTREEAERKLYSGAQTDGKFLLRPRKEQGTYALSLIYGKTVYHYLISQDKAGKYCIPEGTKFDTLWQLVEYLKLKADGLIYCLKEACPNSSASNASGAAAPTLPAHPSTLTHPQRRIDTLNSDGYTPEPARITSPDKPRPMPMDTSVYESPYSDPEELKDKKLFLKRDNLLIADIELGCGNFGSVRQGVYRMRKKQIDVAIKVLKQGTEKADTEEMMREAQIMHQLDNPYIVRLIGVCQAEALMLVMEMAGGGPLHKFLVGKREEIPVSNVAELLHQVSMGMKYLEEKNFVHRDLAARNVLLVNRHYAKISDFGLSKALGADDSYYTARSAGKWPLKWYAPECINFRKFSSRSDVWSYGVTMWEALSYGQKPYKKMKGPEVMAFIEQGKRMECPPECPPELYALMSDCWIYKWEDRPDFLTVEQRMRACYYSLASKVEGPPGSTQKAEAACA
T3 sequence (P00533 25-1210, species assumed): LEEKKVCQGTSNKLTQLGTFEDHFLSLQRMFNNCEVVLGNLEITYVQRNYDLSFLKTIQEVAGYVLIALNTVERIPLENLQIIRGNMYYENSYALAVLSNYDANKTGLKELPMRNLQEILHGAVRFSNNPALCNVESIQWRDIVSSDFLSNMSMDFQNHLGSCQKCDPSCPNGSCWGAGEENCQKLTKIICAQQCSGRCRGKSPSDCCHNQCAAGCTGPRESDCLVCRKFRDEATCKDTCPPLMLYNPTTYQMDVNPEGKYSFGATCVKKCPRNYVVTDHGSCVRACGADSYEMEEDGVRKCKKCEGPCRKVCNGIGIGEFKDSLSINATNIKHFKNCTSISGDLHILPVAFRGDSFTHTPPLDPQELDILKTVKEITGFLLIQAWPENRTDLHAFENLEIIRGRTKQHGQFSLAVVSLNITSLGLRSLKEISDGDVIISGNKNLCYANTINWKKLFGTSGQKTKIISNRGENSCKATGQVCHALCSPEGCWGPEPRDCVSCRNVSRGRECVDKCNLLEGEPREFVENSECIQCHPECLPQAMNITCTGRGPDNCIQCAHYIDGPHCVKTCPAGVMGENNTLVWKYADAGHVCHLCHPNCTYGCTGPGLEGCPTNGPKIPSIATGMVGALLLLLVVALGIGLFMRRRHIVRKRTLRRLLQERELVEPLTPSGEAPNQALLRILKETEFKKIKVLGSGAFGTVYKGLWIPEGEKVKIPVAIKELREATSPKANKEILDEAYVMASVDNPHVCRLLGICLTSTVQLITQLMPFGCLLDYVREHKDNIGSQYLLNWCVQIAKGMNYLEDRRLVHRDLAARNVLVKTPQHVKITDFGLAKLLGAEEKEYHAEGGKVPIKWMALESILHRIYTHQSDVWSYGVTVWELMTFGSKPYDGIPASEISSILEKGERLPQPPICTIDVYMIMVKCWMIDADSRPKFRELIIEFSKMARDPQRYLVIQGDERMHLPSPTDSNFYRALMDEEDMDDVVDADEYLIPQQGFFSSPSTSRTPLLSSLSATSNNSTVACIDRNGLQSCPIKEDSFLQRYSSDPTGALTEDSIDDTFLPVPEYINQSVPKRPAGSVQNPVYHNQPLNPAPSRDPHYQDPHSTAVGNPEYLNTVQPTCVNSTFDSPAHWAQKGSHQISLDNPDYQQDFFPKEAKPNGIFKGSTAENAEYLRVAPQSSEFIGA
Description for human mast cells: The cells were then replated at 1.2 × 10^5 cells/well and cultured with 1 μg/mL anti-IgE for an additional 5 h at 37 °C. The supernatants were collected, and secretion of TNF-α was measured by ELISA.

Take `C[C@H]1CN(C(=O)CC#N)[C@]12CCN(c1ncnc3[nH]ccc13)C2` [JTE-052]: the IC50 on CDK1/cyclinB, on cSRC, against EGFR, at IKKβ, against Lck and against Plk1 was over 1000 nM throughout. Also, the IC50 was over 1000 nM against SAPK2a; over 1000 nM at ZAP-70; 304 ± 22 nM in test [1]; 18 ± 3 nM in [2]; 40 ± 9 nM in test [3]; 84 ± 11 nM in test [4]. The IC50 in [5] is 33 ± 14 nM; with human mast cells it was 133 ± 18 nM. The “effect on bone and cartilage destruction (radiographic, histological), preventive administration” value in test [6] (oral once daily from day 1) is “inhibited radiographic and histological changes of bone destruction and cartilage destruction”. In [6] (oral once daily from day 1, JTE-052 0.1, 1, 10 mg/kg, MTX 0.3 mg/kg), the “effect on hind paw swelling and joint inflammation, preventive administration” value is given as “prevented the development of hind paw swelling”.
